In this assay the test system is CD2F1 mice, L1210 leukemia ip, survival T/C. Description: NCI In Vivo Anticancer Drug Screen. Data for tumor model L1210 Leukemia (intraperitoneal) in CD2F1 (CDF1) mice. The conditions noted are these: higher = longer survival. Put shortly:
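Implant tumor; dose compound or vehicle; measure endpoint in both groups; report treated divided by control.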

Setting [1] is: endpoint: mean survival time, dose: 100.0 mg/kg/injection, schedule: Q01DX009 (ip), vehicle: saline with Tween-80.
[2] abbreviates: endpoint: mean survival time, dose: 100.0 mg/kg/injection, schedule: Q04DX003 (ip), vehicle: saline with Tween-80.
The mark [3] stands for this setting: endpoint: mean survival time, dose: 200.0 mg/kg/injection, schedule: Q01DX009 (ip), vehicle: saline with Tween-80.
The mark [4] stands for this setting: endpoint: mean survival time, dose: 200.0 mg/kg/injection, schedule: Q04DX003 (ip), vehicle: saline with Tween-80.
Where [5] appears, read: endpoint: mean survival time, dose: 400.0 mg/kg/injection, schedule: Q01DX009 (ip), vehicle: saline with Tween-80.
The mark [6] stands for this setting: endpoint: mean survival time, dose: 400.0 mg/kg/injection, schedule: Q04DX003 (ip), vehicle: saline with Tween-80.
Where [7] appears, read: endpoint: mean survival time, dose: 50.0 mg/kg/injection, schedule: Q01DX009 (ip), vehicle: Klucel (hydroxypropylcellulose) (HPC).
Where [8] appears, read: endpoint: mean survival time, dose: 100.0 mg/kg/injection, schedule: Q01DX009 (ip), vehicle: Klucel (hydroxypropylcellulose) (HPC).
The mark [9] stands for this setting: endpoint: mean survival time, dose: 100.0 mg/kg/injection, schedule: Q04DX003 (ip), vehicle: saline.
[10] abbreviates: endpoint: mean survival time, dose: 200.0 mg/kg/injection, schedule: Q04DX003 (ip), vehicle: saline.
Setting [11] is: endpoint: mean survival time, dose: 400.0 mg/kg/injection, schedule: Q04DX003 (ip), vehicle: saline.

“And” between values parts separate entries of the source, which are not always exact repeats. Equal values may be shown once. Inconclusive results and toxic doses are left out.

Turning to `O=C(NN(C(=O)c1ccccc1)c1ccccc1)c1ccccc1`, the T/C by setting is: (endpoint: mean survival time, dose: 100.0 mg/kg/injection, schedule: Q04DX002 (ip), vehicle: saline with Tween-80) 100 % of control; (endpoint: mean survival time, dose: 200.0 mg/kg/injection, schedule: Q04DX002 (ip), vehicle: saline with Tween-80) 107 % of control; (endpoint: mean survival time, dose: 400.0 mg/kg/injection, schedule: Q04DX002 (ip), vehicle: saline with Tween-80) 103 % of control.

As to `COc1cccc2c1C(=O)c1c(O)c3c(c(O)c1C2=O)C[C@@](O)(/C(C)=N/NC(=O)c1cccc([N+](=O)[O-])c1)C[C@@H]3OC1CC(N)C(O)C(C)O1` (stereo partly drawn), the T/C is 121 % of control (endpoint: mean survival time, dose: 2.0 mg/kg/injection, schedule: Q01DX009 (ip), vehicle: water); 121 % of control (endpoint: mean survival time, dose: 4.0 mg/kg/injection, schedule: Q01DX009 (ip), vehicle: water); 98 % of control (endpoint: mean survival time, dose: 16.0 mg/kg/injection, schedule: Q01DX009 (ip), vehicle: water).

For `O=C(O)c1c(Cl)cc(Cl)c(-c2c(Cl)cc(Cl)c(C(=O)O)c2Cl)c1Cl`, the T/C reads like this: under setting [1], 103 % of control; under setting [2], 92 % of control; under setting [3], 98 % of control; under setting [4], 98 % of control; under setting [5], 104 % of control; under setting [6], 100 % of control.

On to `N#CCCC1C(=O)CCCC1=O`, for which the T/C is 105 % of control under setting [2], 89 % of control under setting [4] and 97 % of control under setting [6].

With `CC(=O)NC1CCC(C(C)C)CC1` (stereo not drawn), the T/C (endpoint: mean survival time, dose: 50.0 mg/kg/injection, schedule: Q01DX001 (ip), vehicle: saline with Tween-80) is 102 % of control.

In the case of `CCOC(=O)C1=C(C)N(Cc2ccccc2)C(C)=C(C(=O)OCC)C1(C)C`, the T/C is 107 % of control under setting [1], 109 % of control under setting [3] and 107 % of control under setting [5].

As to `N#Cc1nc(/C=C\c2ccc3c(c2)OCO3)cnc1N`, the T/C was 90 % of control (endpoint: mean survival time, dose: 100.0 mg/kg/injection, schedule: Q01DX001 (ip), vehicle: Klucel (hydroxypropylcellulose) (HPC)); 90 % of control (endpoint: mean survival time, dose: 200.0 mg/kg/injection, schedule: Q01DX001 (ip), vehicle: Klucel (hydroxypropylcellulose) (HPC)); 90 % of control (endpoint: mean survival time, dose: 400.0 mg/kg/injection, schedule: Q01DX001 (ip), vehicle: Klucel (hydroxypropylcellulose) (HPC)).

Take `COc1cc([N+](=O)[O-])c(C=O)c(C(=O)O)c1OC`: the T/C runs as follows: under setting [1], 103 % of control; under setting [2], 90 % of control; under setting [3], 104 % of control; under setting [4], 98 % of control; under setting [5], 110 % of control; under setting [6], 107 % of control.

Turning to `O=[N+]([O-])c1ccc(/C=N\N=C\c2ccc([N+](=O)[O-])cc2)cc1`, the T/C was 106 % of control under setting [7]; 106 % of control under setting [8]; 109 % of control (endpoint: mean survival time, dose: 200.0 mg/kg/injection, schedule: Q01DX009 (ip), vehicle: Klucel (hydroxypropylcellulose) (HPC)).

As to `CC(=O)C(N=Nc1cccc2c1C(=O)c1cccc(Cl)c1C2=O)C(=O)Nc1ccccc1Cl` (stereo not drawn), the T/C runs as follows: (endpoint: mean survival time, dose: 75.0 mg/kg/injection, schedule: Q01DX001 (ip), vehicle: saline) 89 % of control; (endpoint: mean survival time, dose: 150.0 mg/kg/injection, schedule: Q01DX001 (ip), vehicle: saline) 95 % of control.

Turning to `O=S(=O)(F)c1cccc(Cl)c1C[P+](c1ccccc1)(c1ccccc1)c1ccccc1`, the T/C (endpoint: mean survival time, dose: 12.5 mg/kg/injection, schedule: Q01DX001 (ip), vehicle: Klucel (hydroxypropylcellulose) (HPC)) is 103 % of control and the T/C (endpoint: mean survival time, dose: 25.0 mg/kg/injection, schedule: Q01DX001 (ip), vehicle: Klucel (hydroxypropylcellulose) (HPC)) was 115 % of control.

`CSC(=NC#N)SC`: the T/C is, setting by setting: (endpoint: mean survival time, dose: 3.13 mg/kg/injection, schedule: Q01DX001 (ip), vehicle: Klucel (hydroxypropylcellulose) (HPC)) 101 % of control; (endpoint: mean survival time, dose: 6.25 mg/kg/injection, schedule: Q01DX001 (ip), vehicle: Klucel (hydroxypropylcellulose) (HPC)) 104 % of control.

In the case of `Cc1c(Cl)c(Cl)c(Cl)c(-c2c(Cl)c(C)c(Cl)c(Cl)c2Cl)c1Cl`, the T/C was 102 % of control under setting [9], 96 % of control under setting [10] and 98 % of control under setting [11].

In the case of `CC(=O)OCC1OC(OC2C(COC(C)=O)OC(OC(C)=O)C(OC(C)=O)C2OC(C)=O)C(OC(C)=O)C(OC(C)=O)C1OC(C)=O` (stereo not drawn), the T/C was 100 % of control (endpoint: mean survival time, dose: 100.0 mg/kg/injection, schedule: Q01DX001 (ip), vehicle: saline); 91 % of control (endpoint: mean survival time, dose: 200.0 mg/kg/injection, schedule: Q01DX001 (ip), vehicle: saline); 97 % of control (endpoint: mean survival time, dose: 400.0 mg/kg/injection, schedule: Q01DX001 (ip), vehicle: saline).

For the compound `C[C@H](N)C(=O)N[C@@H]1[C@H]2C(=C(O)C[C@@H](O)[C@@H]2O)C(=O)O[C@@H]1C`, the T/C is, setting by setting: (endpoint: mean survival time, dose: 100.0 mg/kg/injection, schedule: Q01DX007 (ip), vehicle: saline) 113 % of control; (endpoint: mean survival time, dose: 100.0 mg/kg/injection, schedule: Q01DX009 (ip), vehicle: saline) 118 % of control; (endpoint: mean survival time, dose: 100.0 mg/kg/injection, schedule: Q03DX003 (ip), vehicle: saline) 107 % of control; under setting [9], 106 % of control; (endpoint: mean survival time, dose: 200.0 mg/kg/injection, schedule: Q01DX007 (ip), vehicle: saline) 124 % of control; (endpoint: mean survival time, dose: 200.0 mg/kg/injection, schedule: Q01DX009 (ip), vehicle: saline) 120 % of control. For the same compound, the T/C is 109 % of control (endpoint: mean survival time, dose: 200.0 mg/kg/injection, schedule: Q03DX003 (ip), vehicle: saline); 106 % of control under setting [10]; 115 % of control (endpoint: mean survival time, dose: 400.0 mg/kg/injection, schedule: Q03DX003 (ip), vehicle: saline); 112 % of control under setting [11]; 103 % of control (endpoint: median survival time, dose: 75.0 mg/kg/injection, schedule: Q01DX009 (ip), vehicle: saline); 109 % of control (endpoint: median survival time, dose: 150.0 mg/kg/injection, schedule: Q01DX009 (ip), vehicle: saline). Further, the T/C is 119 % of control (endpoint: median survival time, dose: 300.0 mg/kg/injection, schedule: Q01DX009 (ip), vehicle: saline); 150 % of control and 166 % of control (endpoint: median survival time, dose: 1200.0 mg/kg/injection, schedule: Q01DX009 (ip), vehicle: saline); 86 % of control (endpoint: median survival time, dose: 2400.0 mg/kg/injection, schedule: Q01DX009 (ip), vehicle: saline).

`C[N+](C)(C)c1cc2c(nn1)Nc1ccccc1S2`: the T/C (endpoint: mean survival time, dose: 3.12 mg/kg/injection, schedule: Q01DX009 (ip), vehicle: Klucel (hydroxypropylcellulose) (HPC)) is 97 % of control and 100 % of control; the T/C (endpoint: mean survival time, dose: 6.25 mg/kg/injection, schedule: Q01DX009 (ip), vehicle: Klucel (hydroxypropylcellulose) (HPC)) is 102 % of control and 103 % of control; the T/C (endpoint: mean survival time, dose: 12.5 mg/kg/injection, schedule: Q01DX009 (ip), vehicle: Klucel (hydroxypropylcellulose) (HPC)) was 87 % of control and 100 % of control; the T/C (endpoint: mean survival time, dose: 25.0 mg/kg/injection, schedule: Q01DX009 (ip), vehicle: Klucel (hydroxypropylcellulose) (HPC)) was 102 % of control and 103 % of control; the T/C (endpoint: mean survival time, dose: 25.0 mg/kg/injection, schedule: Q04DX003 (ip), vehicle: saline) is 111 % of control; the T/C under setting [7] was 94 % of control and 100 % of control. In addition, the T/C (endpoint: mean survival time, dose: 50.0 mg/kg/injection, schedule: Q04DX003 (ip), vehicle: saline) is 117 % of control; the T/C under setting [8] was 96 % of control and 103 % of control; the T/C under setting [9] is 109 % of control.

Regarding `COc1cc(NC(=O)Nc2ccc(S(N)(=O)=O)cc2)c(Cl)c(OC)c1`, the T/C under setting [1] was 95 % of control, the T/C under setting [3] was 95 % of control and the T/C under setting [5] was 104 % of control.

For the compound `COC(=O)CC1(C(=O)OC)Nc2ccccc2C(=O)O1` (stereo not drawn), the T/C reads like this: (endpoint: mean survival time, dose: 100.0 mg/kg/injection, schedule: Q01DX001 (ip), vehicle: saline with Tween-80) 94 % of control; (endpoint: mean survival time, dose: 200.0 mg/kg/injection, schedule: Q01DX001 (ip), vehicle: saline with Tween-80) 96 % of control; (endpoint: mean survival time, dose: 400.0 mg/kg/injection, schedule: Q01DX001 (ip), vehicle: saline with Tween-80) 96 % of control.

`COc1ccc2nc3cc(Cl)ccc3c(Nc3cccc(NS(C)(=O)=O)c3)c2n1`: the T/C reads like this: (endpoint: mean survival time, dose: 12.5 mg/kg/injection, schedule: Q01DX009 (ip), vehicle: other) 100 % of control; (endpoint: mean survival time, dose: 25.0 mg/kg/injection, schedule: Q01DX009 (ip), vehicle: other) 93 % of control; (endpoint: mean survival time, dose: 50.0 mg/kg/injection, schedule: Q01DX009 (ip), vehicle: other) 89 % of control; (endpoint: mean survival time, dose: 100.0 mg/kg/injection, schedule: Q01DX009 (ip), vehicle: other) 93 % of control; (endpoint: mean survival time, dose: 200.0 mg/kg/injection, schedule: Q01DX009 (ip), vehicle: other) 93 % of control.
